In US9447095B2, “Pyrimidine derivatives as phosphodiesterase 10 inhibitors (PDE-10)” (PALOBIOFARMA S.L., priority 2013, dated 2016) one finds IC50 data, which are given here for 30 molecules.

As usually defined, the IC50 is the midpoint of a concentration-inhibition curve.

Molecules are shown by their SMILES.

Chain of Phosphodiesterase 10A (PDE10A) (Q9Y233 whole entry, species assumed): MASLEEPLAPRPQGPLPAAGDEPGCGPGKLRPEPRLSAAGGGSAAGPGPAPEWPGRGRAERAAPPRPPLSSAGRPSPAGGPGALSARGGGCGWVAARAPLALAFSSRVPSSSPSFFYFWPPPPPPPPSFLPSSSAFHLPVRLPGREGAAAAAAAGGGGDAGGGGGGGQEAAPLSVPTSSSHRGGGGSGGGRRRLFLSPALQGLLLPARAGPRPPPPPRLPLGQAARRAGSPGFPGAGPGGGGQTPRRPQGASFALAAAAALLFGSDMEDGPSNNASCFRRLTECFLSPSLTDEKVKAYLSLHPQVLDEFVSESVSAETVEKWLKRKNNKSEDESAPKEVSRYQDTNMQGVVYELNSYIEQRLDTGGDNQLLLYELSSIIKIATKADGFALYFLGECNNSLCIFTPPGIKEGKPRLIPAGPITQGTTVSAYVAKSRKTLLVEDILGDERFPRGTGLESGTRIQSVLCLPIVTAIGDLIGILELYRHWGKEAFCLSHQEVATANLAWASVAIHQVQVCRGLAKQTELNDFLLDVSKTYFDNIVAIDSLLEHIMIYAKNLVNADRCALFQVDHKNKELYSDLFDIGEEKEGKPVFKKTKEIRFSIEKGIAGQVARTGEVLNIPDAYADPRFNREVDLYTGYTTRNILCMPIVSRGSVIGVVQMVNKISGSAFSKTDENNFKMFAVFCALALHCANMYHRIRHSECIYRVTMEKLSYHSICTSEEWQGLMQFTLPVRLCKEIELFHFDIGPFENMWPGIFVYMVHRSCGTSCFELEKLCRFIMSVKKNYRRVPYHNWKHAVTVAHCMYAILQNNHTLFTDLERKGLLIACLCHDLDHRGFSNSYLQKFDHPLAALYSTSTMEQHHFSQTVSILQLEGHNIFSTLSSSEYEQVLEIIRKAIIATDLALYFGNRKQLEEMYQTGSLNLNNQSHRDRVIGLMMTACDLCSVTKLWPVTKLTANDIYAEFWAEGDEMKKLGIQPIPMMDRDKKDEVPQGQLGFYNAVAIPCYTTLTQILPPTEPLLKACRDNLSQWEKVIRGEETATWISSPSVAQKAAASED

This test concerns the target Phosphodiesterase 10A (PDE10A) (Homo sapiens (Human), UniProt Q9Y233). The experiment in a line: Phosphodiesterase 10A (PDE10A) activity inhibition test ([3H]cAMP scintillation proximity assay). Format: biochemical. The conditions noted are these: dose-response, 1:10 dilutions from 100 μM to 1 nM; [3H]cAMP SPA, 20 minutes at 30° C.; read-out: IC50 PDE10. The procedure:
The “analysis of the activity of the enzyme Phosphodiesterase [^3H] cAMP SPA” (Perkin Elmer #7090 TRKQ) kit was used for the study of Phosphodiesterase 10. The kit contains: • Yttrium scintillation proximity assay (SPA) in beads: yttrium silicate in microspheres resuspended pellet in MiliQ water containing 18 mM zinc sulfate. • 10×PDE assay buffer: 500 mM Tris/HCl; 83 mM MgCl2; 17 mM EGTA; pH 7.5. • Tracer [^3H] cAMP: substrate for enzymatic reaction.
The test is based on the preferential binding of linear nucleotides to the SPA beads in the presence of zinc sulfate, with respect to the binding of cyclic nucleotides, which is almost imperceptible.
The binding of the radioactively labeled product to the beads brings the isotope to a proximity enough to allow the radioactive tritium radiation to excite the flashing part in the bead. Any independent radiolabel is not sufficiently close to the flashing part to allow the transfer of energy, so that no signal is generated. In addition, as the cyclic substrate is not effectively linked with the bead, the generated background signal is very low.
The binding of the linear nucleotides with the bead is based on a complex chelation mechanism. Zinc sulfate in the microsphere solution improves the binding between the bead and […].
Phosphodiesterase 10A (PDE10A) Activity Inhibition Test
The test is performed in 96-well Flexiplates (Perkin Elmer #1450-401) with duplicates for each sample. Positive and negative controls are also required in each analyzed plate to evaluate the activity of the enzyme.
The inhibition values for each of the compounds are measured in duplicate at a concentration of 10 μM and the plate is incubated for 20 minutes at 30° C. and then 50 μL of the kit beads are then added “Phosphodiesterase SPA beads” (Perkin-Elmer #RPNQ0150).
The plate is stirred for 1 hour at room temperature. Then beads are allowed to stand for one hour before reading the activity in a beta scintillation counter.
To build a dose-response curve, in order to calculate the potency of inhibition (expressed as IC50) for PDE10A, a series of 1:10 dilutions in test in 1× buffer from 100 μM to 1 nM for each compound were carried out.
Background: SPA uses beads or plates that emit light when radiolabelled molecules are held near them.
For `Nc1nc(-n2ncc3ccccc32)nc(NCC2CC2)c1Br` [Example 1, 5-bromo-N^4-(cyclopropylmethyl)-2-(1H-indazol-1-yl)pyrimidine-4,6-diamine], the IC50 is 52.5 nM.

In the case of `CCNc1nc(-n2ncc3ccccc32)nc(N)c1Br` [Example 2, 5-bromo-N^4-ethyl-2-(1H-indazol-1-yl)pyrimidine-4,6-diamine], the half-maximal inhibitory concentration (IC50) was 21.9 nM.

`C#CCNc1nc(-n2ncc3ccccc32)nc(N)c1Br` [Example 3, 5-bromo-2-(1H-indazol-1-yl)-N^4-(prop-2-ynyl)pyrimidine-4,6-diamine]: the IC50 was found to be 40.9 nM.

Turning to `Cc1nc(CNc2nc(-n3ncc4ccccc43)nc(N)c2Br)cs1` [Example 6, 5-bromo-2-(1H-indazol-1-yl)-N^4-[(2-methylthiazol-4-yl)methyl]pyrimidine-4,6-diamine], the IC50 is 18.8 nM.

In the case of `Nc1nc(-n2ncc3ccccc32)nc(NC2CCOCC2)c1Br` [Example 7, 5-bromo-N^4-(tetrahydro-2H-pyran-4-yl)-2-(1H-indazol-1-yl)pyrimidine-4,6-diamine], the concentration for half-maximal inhibition (IC50) is 21.9 nM.

For `Cn1cc(CNc2nc(-n3ncc4ccccc43)nc(N)c2Br)cn1` [Example 8, 5-bromo-2-(1H-indazol-1-yl)-N^4-[(1-methyl-1H-pyrazol-4-yl)methyl]pyrimidine-4,6-diamine], the IC50 is 74.1 nM.

For the molecule `Nc1nc(-n2ncc3ccccc32)nc(NCc2cncs2)c1Br` [Example 9, 5-bromo-2-(1H-indazol-1-yl)-N^4-[(thiazol-5-yl)methyl]pyrimidine-4,6-diamine], the IC50 was 1.6 nM.

Turning to `Cc1ncsc1CNc1nc(-n2ncc3ccccc32)nc(N)c1Br` [Example 10, 5-bromo-2-(1H-indazol-1-yl)-N^4-[(4-methylthiazol-5-yl)methyl]pyrimidine-4,6-diamine], the 50% inhibitory concentration (IC50) turned out to be 2.9 nM.

`COCCNc1nc(-n2ncc3ccccc32)nc(N)c1Br` [Example 11, 5-bromo-2-(1H-indazol-1-yl)-N^4-(2-methoxyethyl)pyrimidine-4,6-diamine]: the IC50 turned out to be 25.9 nM.

Consider `C#CCNc1nc(-n2cc(-c3ccccn3)cn2)nc(N)c1Br` [Example 17, 5-bromo-N^4-(prop-2-ynyl)-2-[4-(pyridin-2-yl)-1H-pyrazol-1-yl]pyrimidine-4,6-diamine], for which the IC50 worked out at 18 nM.

In the case of `Nc1nc(-n2cc(-c3ccccn3)cn2)nc(NCc2cncs2)c1Br` [Example 20, 5-bromo-2-[4-(pyridin-2-yl)-1H-pyrazol-1-yl]-N^4-[(thiazol-5-yl)methyl]pyrimidine-4,6-diamine], the IC50 stood at 7 nM.

Take `Nc1nc(-n2cc(-c3ccc4ccccc4n3)cn2)nc(NC2CCOCC2)c1Br` [Example 23, 5-bromo-N^4-(tetrahydro-2H-pyran-4-yl)-2-[4-(quinolin-2-yl)-1H-pyrazol-1-yl]pyrimidine-4,6-diamine]: the IC50 is 9.6 nM.

Turning to `Cc1ncsc1CNc1nc(-n2cc(-c3cnccn3)cn2)nc(N)c1Br` [Example 29, 5-bromo-N^4-[(4-methylthiazol-5-yl)methyl]-2-[4-(pyrazin-2-yl)-1H-pyrazol-1-yl]pyrimidine-4,6-diamine], the half-inhibitory concentration (IC50) came out at 16.5 nM.

`C#CCNc1nc(-n2cc(-c3cnccn3)cn2)nc(N)c1Br` [Example 30, 5-bromo-N^4-(prop-2-ynyl)-2-[4-(pyrazin-2-yl)-1H-pyrazol-1-yl]pyrimidine-4,6-diamine]: the half-maximal inhibitory concentration (IC50) amounted to 4.5 nM.

With `C#CCNc1nc(-n2ncc3ccncc32)nc(N)c1Br` [Example 33, 5-bromo-N^4-(prop-2-ynyl)-2-(1H-pyrazolo[3,4-c]pyridin-1-yl)pyrimidine-4,6-diamine], the IC50 turned out to be 3.2 nM.

As for `Cc1ncsc1CNc1nc(-n2ncc3ccncc32)nc(N)c1Br` [Example 34, 5-bromo-N^4-[(4-methylthiazol-5-yl)methyl]-2-(1H-pyrazolo[3,4-c]pyridin-1-yl)pyrimidine-4,6-diamine], the IC50 came to 0.4 nM.

As to `Nc1nc(-n2ncc3ccncc32)nc(NCC2CC2)c1Br` [Example 35, 5-bromo-N^4-(cyclopropylmethyl)-2-(1H-pyrazolo[3,4-c]pyridin-1-yl)pyrimidine-4,6-diamine], the IC50 came to 1.8 nM.

With `Nc1nc(-n2ncc3ccncc32)nc(NCc2cncs2)c1Br` [Example 36, 5-bromo-2-(1H-pyrazolo[3,4-c]pyridin-1-yl)-N^4-[(thiazol-5-yl)methyl]pyrimidine-4,6-diamine], the IC50 amounted to 0.06 nM.

For `Cc1ncsc1CNc1nc(-n2ncc3cnccc32)nc(N)c1Br` [Example 39, 5-bromo-N^4-[(4-methylthiazol-5-yl)methyl]-2-(1H-pyrazolo[4,3-c]pyridin-1-yl)pyrimidine-4,6-diamine], the half-maximal inhibitory concentration (IC50) stood at 0.3 nM.

On to `Cc1ncsc1CNc1nc(-n2ncc3ncccc32)nc(N)c1Br` [Example 41, 5-bromo-N^4-[(4-methylthiazol-5-yl)methyl]-2-(1H-pyrazolo[4,3-b]pyridin-1-yl)pyrimidine-4,6-diamine], for which the IC50 amounted to 0.6 nM.

Consider `C#CCNc1nc(-n2cncn2)nc(N)c1Br` [Example 42, 5-bromo-N^4-(prop-2-ynyl)-2-(1H-1,2,4-triazol-1-yl)pyrimidine-4,6-diamine], for which the IC50 is 5.8 nM.

Take `Nc1nc(-n2cncn2)nc(NCc2cncs2)c1Br` [Example 45, 5-bromo-N^4-[(thiazol-5-yl)methyl]-2-(1H-1,2,4-triazol-1-yl)pyrimidine-4,6-diamine]: the IC50 was determined as 1.3 nM.

As to `Nc1nc(-n2cncn2)nc(NCC2CC2)c1Br` [Example 46, 5-bromo-N^4-(cyclopropylmethyl)-2-(1H-1,2,4-triazol-1-yl)pyrimidine-4,6-diamine], the IC50 was 3.4 nM.

For `Nc1nc(-n2cc(C(=O)O)cn2)nc(NCC2CC2)c1Br` [Example 51, 1-[4-amino-5-bromo-6-(cyclopropylmethylamino)pyrimidin-2-yl]-1H-pyrazole-4-carboxylic acid], the IC50 is 29.9 nM.

With `CCNc1nc(-n2cc(C(=O)N3CCOCC3)cn2)nc(N)c1Br` [Example 53, {1-[4-amino-5-bromo-6-(ethylamino)pyrimidin-2-yl]-1H-pyrazole-4-yl}(morpholino)methanone], the IC50 came out at 8.2 nM.

As to `Nc1nc(-n2cc(-c3ccccn3)cn2)nc(-n2cccn2)c1Br` [Example 55, 5-bromo-6-(1H-pyrazol-1-yl)-2-[4-(pyridin-2-yl)-1H-pyrazol-1-yl]pyrimidin-4-amine], the IC50 turned out to be 90.7 nM.

For the molecule `CCNc1nc(-n2cc(-c3ccncn3)cn2)nc(N)c1Br` [Example 61, 5-bromo-N^4-ethyl-2-[4-(pyrimidin-4-yl)-1H-pyrazol-1-yl]pyrimidine-4,6-diamine], the IC50 was found to be 37 nM.

Consider `CCNc1nc(-n2ncc3ccccc32)nc(N)c1Cl` [Example 64, 5-chloro-N^4-ethyl-2-(1H-indazol-1-yl)pyrimidine-4,6-diamine], for which the IC50 stood at 12.4 nM.

For `C#CCNc1nc(-n2ncc3ccccc32)nc(NCC)c1Br` [Example 66, 5-bromo-N^4-ethyl-2-(1H-indazol-1-yl)-N^6-(prop-2-ynyl)pyrimidine-4,6-diamine], the IC50 was determined as 120 nM.

As for `CCNc1nc(-n2cc(-c3ccncn3)cn2)nc(NCc2nc3ccccc3[nH]2)c1Br` [Example 77, N^4-[(1H-benzo[d]imidazol-2-yl)methyl]-5-bromo-N^6-ethyl-2-[4-(pyrimidin-4-yl)-1H-pyrazol-1-yl]pyrimidine-4,6-diamine], the IC50 is 29.3 nM.
